Laboratory results as given in publication PMC7582822, “Constituents of Coreopsis lanceolata Flower and Their Dipeptidyl Peptidase IV Inhibitory Effects” (Molecules, 2020).
Where two headings read alike, the source gives them in different places.

Biological target: T1, human recombinant DPP-IV enzyme (Homo sapiens, UniProt P27487)
T1 construct: purchased Cayman Chemical
Assay: DPP-IV inhibitor screening assay (Cayman kit, fluorogenic H-Gly-Pro-AMC substrate)
Assay type: biochemical
Conditions: for DPP-IV inhibitory effect (in words): isolates tested up to 100 μM
Description: Briefly, a DDP assay buffer consisting of 20 mM Tris-HCL (pH 8.0), […] and 1 mM EDTA was used for the assay solution. Each of the compounds were initially dissolved in DMSO at a concentration of 1 mM. Subsequently, the final concentration of compounds was diluted to 0.1, 1, 10, 25, 50 and 100 μM, respectively. The human recombinant DPP-IV enzyme and the substrate 5 mM H-Gly-Pro conjugated to aminomethylcoumarin (AMC) were put in the same buffer. Diluted assay buffer (30 μL) and diluted enzyme solution (10 μL) were added to a 96-well plate containing 10 μL of solvent (blank) or 10 μL of solvent-dissolved test compounds. The reaction by adding 50 μL of the diluted solution of the fluorogenic substrate was initiated and cleavage of the peptide bond by DPP released the free AMC group. The fluorescence was measured as an excitation wavelength of 350 nm and an emission wavelength of 450 nm using a plate reader (TECAN, Männedorf, Switzerland). The percentage inhibition was expressed as [(DPP-IV level of vehicle-treated control−DPP-IV level of test samples)/DPP-IV level of vehicle-treated control] × 100. Subsequently, the 50% inhibitory concentration (IC50) was determined using GraphPad Prism software (GaraphPad Software, La Jolla, CA, USA) via a dose–response analysis.

[1] = in vitro, compounds at 0.1-100 μM, values in text, read-out: IC50, inhibition of DPP-IV activity

T1 sequence (P27487 whole entry): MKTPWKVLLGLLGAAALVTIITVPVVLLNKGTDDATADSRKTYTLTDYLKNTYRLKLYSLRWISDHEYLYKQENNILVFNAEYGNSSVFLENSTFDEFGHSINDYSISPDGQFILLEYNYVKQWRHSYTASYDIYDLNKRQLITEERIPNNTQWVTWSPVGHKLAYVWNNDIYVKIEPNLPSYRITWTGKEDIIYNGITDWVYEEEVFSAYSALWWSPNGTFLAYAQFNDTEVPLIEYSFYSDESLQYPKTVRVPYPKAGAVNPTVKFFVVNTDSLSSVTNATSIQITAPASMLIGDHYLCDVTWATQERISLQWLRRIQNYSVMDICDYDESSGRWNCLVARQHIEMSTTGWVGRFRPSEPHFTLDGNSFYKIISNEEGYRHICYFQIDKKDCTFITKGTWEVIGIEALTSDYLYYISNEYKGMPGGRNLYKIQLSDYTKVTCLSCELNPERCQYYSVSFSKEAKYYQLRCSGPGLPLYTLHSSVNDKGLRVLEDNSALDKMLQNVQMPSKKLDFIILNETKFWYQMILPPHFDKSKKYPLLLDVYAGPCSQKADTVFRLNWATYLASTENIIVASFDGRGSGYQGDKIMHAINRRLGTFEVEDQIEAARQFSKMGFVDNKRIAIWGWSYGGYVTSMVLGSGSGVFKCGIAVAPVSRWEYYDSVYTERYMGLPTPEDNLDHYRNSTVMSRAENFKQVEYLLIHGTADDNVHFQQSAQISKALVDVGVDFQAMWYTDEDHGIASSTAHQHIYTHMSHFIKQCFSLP

| Structure (SMILES) | DPP-IV inhibitory effect (in words) | IC50 (dose-response curves, mean ± SD of three independent experiments, read-out: IC50, effect on DPP-IV activity (Figure 3)) [µM] | IC50 [1] [µM] |
| --- | --- | --- | --- |
| CC#CC#CC#C/C=C/[C@@H](CCCCO)O[C@@H]1O[C@H](CO)[C@@H](O)[C@H](O)[C@H]1O [Compound 1, (5R)-6E-tetradecene-8,10,12-triyne-1-ol-5-O-β-glucoside] | did not show their activities |  |  |
| COc1c(O)ccc(C(=O)/C=C/c2ccc(O)c(O)c2)c1O [Compound 2, lanceoletin] |  | 9.55 | 9.6 |
| COc1ccc(C=CC(=O)c2ccc(OC3OC(CO)C(O)C(O)C3O)c(OC)c2O)cc1O (stereo not shown) [Compound 3, 3,2′-dihydroxy-4-3′-dimethoxychalcone-4′-glucoside] |  |  | 14.3 |
| COc1ccc(/C=C/C(=O)c2ccc(O)c(OC)c2O)cc1O [Compound 4] |  |  | 21.6 |
| COc1c(O)ccc2c1O/C(=C\c1ccc(O)c(O)c1)C2=O [Compound 6, leptosidin] | moderate |  | 13.3 |
| COc1c(O)ccc2c1O[C@@H](c1ccc(O)c(O)c1)CC2=O [Compound 7, (2R)-8-methoxybutin] | moderate |  | 64.9 |
| O=c1cc(-c2ccc(O)c(O)c2)oc2cc(O)cc(O)c12 [Compound 8, luteolin] | did not show their activities |  |  |
| O=c1c(O)c(-c2ccc(O)c(O)c2)oc2cc(O)cc(O)c12 [Compound 9, quercetin] | did not show their activities |  |  |
| C/C=C/C#CC#CCCCO[C@@H]1O[C@H](CO)[C@@H](O)[C@H](O)[C@H]1O [Compound 10, bidenoside C] | did not show their activities |  |  |
| C=C[C@H](O)[C@H](/C=C/C#CC#CC#CC)O[C@@H]1O[C@H](CO)[C@@H](O)[C@H](O)[C@H]1O [Compound 11, (3S,4S)-5E-trideca-1,5-dien-7,9,11-triyne-3,4-diol-4-O-β-glucopyranoside] | did not show their activities |  |  |
